Values of other authors, collected in US9950967B2, “Titanium-containing formulation and method of preparation of titanium-containing formulation” (INTERMAG Sp. z.o.o., priority 2013, dated 2018).

Test system: plants
Conditions: I. Pais, J. Plant Nutr. 6:3-133, 1983

titanium
increases the yield: 10-20%
